According to paper PMC11233931, “Remodeling tumor‐associated macrophage for anti‐cancer effects by rational design of irreversible inhibition of mitogen‐activated protein kinase‐activated protein kinase 2” (MedComm, 2024):

Tests used:
Assay in all cases: Eurofins kinase selectivity profile against 380 other human recombinant kinases (Table S2)
Assay type in all cases: biochemical
[1] = molecular target: T1, 380 human recombinant protein kinases (Homo sapiens, UniProt Q16584); details: MLK3(h), read-out: Inhibition rate
T1 construct: purchased Eurofins (Celle Lévescault)
Procedure, shortened: (§1)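 Outsourced panel: 380 human recombinant kinases; inhibitor tested at various concentrations; purpose: MK2 selectivity check.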

[2] = molecular target: T2, 380 human recombinant protein kinases (Homo sapiens, UniProt Q12866); details: Mer(h), read-out: Inhibition rate
T2 construct: purchased Eurofins (Celle Lévescault)
T2 sequence (Q12866 21-999): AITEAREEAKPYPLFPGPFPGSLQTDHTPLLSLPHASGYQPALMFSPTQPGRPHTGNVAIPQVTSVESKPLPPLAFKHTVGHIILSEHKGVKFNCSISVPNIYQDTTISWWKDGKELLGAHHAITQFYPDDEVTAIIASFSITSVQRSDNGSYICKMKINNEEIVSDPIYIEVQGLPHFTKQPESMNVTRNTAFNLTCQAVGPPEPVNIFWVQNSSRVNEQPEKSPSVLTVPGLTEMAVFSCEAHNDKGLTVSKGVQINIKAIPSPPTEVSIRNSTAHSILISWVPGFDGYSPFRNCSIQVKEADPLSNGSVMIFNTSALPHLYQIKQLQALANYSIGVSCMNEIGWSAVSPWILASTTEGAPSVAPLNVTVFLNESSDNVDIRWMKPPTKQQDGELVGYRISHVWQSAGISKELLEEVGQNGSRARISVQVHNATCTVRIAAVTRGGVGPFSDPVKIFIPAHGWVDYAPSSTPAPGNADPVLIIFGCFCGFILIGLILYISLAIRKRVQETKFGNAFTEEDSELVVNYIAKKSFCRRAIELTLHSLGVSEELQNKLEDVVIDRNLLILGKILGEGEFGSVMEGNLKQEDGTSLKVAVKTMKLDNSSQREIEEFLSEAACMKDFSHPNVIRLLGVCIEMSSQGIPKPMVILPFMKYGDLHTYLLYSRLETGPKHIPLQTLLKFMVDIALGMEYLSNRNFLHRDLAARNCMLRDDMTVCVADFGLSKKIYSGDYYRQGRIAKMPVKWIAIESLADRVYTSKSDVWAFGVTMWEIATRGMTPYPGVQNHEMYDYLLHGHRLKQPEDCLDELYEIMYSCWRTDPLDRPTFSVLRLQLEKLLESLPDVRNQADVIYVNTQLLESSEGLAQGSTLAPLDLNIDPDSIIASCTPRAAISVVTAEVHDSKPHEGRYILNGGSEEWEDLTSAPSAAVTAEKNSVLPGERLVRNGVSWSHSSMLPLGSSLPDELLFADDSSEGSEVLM
Procedure, shortened: as §1

[3] = molecular target: T3, 380 human recombinant protein kinases (Homo sapiens, UniProt P21802); details: FGFR2(h), read-out: Inhibition rate
T3 construct: purchased Eurofins (Celle Lévescault)
T3 sequence (P21802 22-821): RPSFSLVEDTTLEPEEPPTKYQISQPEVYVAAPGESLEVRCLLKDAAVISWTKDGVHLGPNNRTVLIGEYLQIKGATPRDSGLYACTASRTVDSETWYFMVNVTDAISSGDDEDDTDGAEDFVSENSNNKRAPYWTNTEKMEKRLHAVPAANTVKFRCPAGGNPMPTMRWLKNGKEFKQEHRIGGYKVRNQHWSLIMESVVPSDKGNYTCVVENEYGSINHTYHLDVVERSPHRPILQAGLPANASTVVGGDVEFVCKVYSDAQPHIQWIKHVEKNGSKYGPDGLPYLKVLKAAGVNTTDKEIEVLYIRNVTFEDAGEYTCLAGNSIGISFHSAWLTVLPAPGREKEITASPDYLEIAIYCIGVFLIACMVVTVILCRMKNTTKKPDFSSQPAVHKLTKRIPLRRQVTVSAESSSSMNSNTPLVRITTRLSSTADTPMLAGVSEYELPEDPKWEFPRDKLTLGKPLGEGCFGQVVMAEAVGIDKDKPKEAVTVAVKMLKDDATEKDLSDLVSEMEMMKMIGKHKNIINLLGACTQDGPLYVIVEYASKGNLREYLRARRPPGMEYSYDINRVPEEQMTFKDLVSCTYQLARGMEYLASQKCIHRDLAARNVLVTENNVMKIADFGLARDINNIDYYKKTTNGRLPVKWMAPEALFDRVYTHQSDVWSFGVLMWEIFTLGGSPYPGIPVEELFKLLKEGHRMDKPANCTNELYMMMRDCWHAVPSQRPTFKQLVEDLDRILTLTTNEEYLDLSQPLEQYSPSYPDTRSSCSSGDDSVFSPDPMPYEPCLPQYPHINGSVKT
Procedure, shortened: as §1

[4] = molecular target: T4, 380 human recombinant protein kinases (Homo sapiens, UniProt P23458); details: JAK1(h), read-out: Inhibition rate
T4 construct: purchased Eurofins (Celle Lévescault)
T4 sequence (P23458 whole entry): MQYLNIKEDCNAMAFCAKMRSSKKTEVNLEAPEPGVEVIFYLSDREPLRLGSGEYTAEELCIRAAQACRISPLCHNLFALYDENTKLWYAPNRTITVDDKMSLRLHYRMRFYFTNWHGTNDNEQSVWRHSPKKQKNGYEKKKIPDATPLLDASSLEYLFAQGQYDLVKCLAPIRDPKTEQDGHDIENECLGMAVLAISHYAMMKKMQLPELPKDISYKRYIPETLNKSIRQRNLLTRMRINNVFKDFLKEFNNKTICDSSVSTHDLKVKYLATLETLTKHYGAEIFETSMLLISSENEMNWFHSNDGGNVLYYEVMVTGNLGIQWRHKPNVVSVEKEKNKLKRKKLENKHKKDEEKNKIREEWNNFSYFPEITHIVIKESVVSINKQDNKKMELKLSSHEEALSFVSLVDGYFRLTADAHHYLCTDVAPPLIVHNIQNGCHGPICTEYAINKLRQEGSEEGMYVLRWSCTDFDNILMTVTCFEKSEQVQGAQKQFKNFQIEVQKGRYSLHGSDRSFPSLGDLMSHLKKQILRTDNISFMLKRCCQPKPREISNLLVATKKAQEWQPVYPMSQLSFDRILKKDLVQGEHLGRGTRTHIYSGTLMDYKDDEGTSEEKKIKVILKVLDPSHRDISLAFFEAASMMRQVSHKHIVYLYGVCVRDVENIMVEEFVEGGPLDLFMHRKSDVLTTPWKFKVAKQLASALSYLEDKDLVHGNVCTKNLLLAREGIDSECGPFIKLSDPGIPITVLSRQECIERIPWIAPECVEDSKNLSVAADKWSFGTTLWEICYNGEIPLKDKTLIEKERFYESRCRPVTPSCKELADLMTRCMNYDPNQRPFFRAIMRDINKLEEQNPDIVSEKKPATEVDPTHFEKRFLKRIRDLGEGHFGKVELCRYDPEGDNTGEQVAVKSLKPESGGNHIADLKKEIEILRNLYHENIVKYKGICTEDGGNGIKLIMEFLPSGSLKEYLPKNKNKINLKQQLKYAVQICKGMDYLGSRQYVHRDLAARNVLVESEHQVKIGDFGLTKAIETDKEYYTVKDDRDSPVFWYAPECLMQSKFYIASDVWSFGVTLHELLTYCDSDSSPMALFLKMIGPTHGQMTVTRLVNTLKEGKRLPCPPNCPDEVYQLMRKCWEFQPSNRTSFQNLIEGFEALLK
Procedure, shortened: as §1

[5] = molecular target: T5, 380 human recombinant protein kinases (Homo sapiens, UniProt P78368); details: CK1γ2(h), read-out: Inhibition rate
T5 construct: purchased Eurofins (Celle Lévescault)
Procedure, shortened: as §1

[6] = molecular target: T6, 380 human recombinant protein kinases (Homo sapiens, UniProt O15075); details: DCAMKL1(h), read-out: Inhibition rate
T6 construct: purchased Eurofins (Celle Lévescault)
T6 sequence (O15075 whole entry): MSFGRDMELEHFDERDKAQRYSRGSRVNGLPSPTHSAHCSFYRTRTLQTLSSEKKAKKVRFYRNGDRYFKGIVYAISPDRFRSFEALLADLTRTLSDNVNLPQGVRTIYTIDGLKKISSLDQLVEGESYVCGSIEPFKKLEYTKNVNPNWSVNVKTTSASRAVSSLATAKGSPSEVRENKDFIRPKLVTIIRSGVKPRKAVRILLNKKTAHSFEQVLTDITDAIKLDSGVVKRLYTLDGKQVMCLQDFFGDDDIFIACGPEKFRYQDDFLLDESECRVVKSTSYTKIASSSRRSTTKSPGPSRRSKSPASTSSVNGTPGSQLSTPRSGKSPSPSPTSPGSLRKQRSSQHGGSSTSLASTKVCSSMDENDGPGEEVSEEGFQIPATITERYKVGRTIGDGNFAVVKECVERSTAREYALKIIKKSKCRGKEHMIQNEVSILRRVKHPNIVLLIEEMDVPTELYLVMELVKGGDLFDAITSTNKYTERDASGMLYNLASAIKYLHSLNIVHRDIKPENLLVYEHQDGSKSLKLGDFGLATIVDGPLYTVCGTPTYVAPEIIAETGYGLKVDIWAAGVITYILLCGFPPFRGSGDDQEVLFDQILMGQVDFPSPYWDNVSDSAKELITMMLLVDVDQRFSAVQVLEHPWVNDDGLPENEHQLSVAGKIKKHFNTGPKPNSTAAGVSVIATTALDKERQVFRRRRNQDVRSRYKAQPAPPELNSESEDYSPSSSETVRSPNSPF
Procedure, shortened: as §1

[7] = molecular target: T7, 380 human recombinant protein kinases (Homo sapiens, UniProt O75116); details: ROCK-II(h), read-out: Inhibition rate
T7 construct: purchased Eurofins (Celle Lévescault)
T7 sequence (O75116 whole entry): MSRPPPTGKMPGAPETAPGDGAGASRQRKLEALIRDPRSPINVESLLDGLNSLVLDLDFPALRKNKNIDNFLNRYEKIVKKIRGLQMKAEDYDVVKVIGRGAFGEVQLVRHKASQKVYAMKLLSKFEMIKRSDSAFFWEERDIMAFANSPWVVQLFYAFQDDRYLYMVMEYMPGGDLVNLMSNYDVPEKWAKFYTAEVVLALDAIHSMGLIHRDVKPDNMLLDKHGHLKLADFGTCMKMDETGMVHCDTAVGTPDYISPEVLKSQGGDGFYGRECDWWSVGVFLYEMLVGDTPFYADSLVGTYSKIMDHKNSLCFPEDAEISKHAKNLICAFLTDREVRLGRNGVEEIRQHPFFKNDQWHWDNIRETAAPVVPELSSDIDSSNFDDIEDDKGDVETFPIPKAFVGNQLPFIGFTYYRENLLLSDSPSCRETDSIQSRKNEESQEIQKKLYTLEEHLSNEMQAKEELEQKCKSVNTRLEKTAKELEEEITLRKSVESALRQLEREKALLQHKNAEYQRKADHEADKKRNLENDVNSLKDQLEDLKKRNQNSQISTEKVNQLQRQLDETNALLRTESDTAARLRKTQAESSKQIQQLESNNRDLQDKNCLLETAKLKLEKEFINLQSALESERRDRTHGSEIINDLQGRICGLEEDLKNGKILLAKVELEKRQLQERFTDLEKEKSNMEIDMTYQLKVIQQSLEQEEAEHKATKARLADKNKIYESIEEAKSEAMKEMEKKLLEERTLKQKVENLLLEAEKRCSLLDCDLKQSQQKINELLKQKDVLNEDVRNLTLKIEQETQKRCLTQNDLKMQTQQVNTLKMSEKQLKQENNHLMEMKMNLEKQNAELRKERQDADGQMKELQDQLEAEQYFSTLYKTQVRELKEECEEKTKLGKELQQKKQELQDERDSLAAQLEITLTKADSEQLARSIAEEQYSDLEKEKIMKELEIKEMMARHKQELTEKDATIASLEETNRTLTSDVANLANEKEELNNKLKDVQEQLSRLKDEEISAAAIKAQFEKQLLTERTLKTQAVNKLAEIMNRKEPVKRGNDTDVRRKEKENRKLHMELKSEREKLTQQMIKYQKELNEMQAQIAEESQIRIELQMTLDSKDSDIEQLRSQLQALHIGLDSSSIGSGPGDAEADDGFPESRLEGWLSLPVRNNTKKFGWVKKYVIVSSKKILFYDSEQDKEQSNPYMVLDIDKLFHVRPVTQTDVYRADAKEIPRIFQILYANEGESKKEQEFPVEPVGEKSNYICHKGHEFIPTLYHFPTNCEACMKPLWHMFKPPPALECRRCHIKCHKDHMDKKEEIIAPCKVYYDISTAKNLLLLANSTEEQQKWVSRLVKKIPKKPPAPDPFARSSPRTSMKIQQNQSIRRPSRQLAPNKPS
Procedure, shortened: as §1

[8] = molecular target: T8, 380 human recombinant protein kinases (Homo sapiens, UniProt Q9Y463); details: DYRK1B(h), read-out: Inhibition rate
T8 construct: purchased Eurofins (Celle Lévescault)
Procedure, shortened: as §1

[9] = molecular target: T9, 380 human recombinant protein kinases (Homo sapiens, UniProt P04049); details: c-RAF(h), read-out: Inhibition rate
T9 construct: purchased Eurofins (Celle Lévescault)
T9 sequence (P04049 whole entry): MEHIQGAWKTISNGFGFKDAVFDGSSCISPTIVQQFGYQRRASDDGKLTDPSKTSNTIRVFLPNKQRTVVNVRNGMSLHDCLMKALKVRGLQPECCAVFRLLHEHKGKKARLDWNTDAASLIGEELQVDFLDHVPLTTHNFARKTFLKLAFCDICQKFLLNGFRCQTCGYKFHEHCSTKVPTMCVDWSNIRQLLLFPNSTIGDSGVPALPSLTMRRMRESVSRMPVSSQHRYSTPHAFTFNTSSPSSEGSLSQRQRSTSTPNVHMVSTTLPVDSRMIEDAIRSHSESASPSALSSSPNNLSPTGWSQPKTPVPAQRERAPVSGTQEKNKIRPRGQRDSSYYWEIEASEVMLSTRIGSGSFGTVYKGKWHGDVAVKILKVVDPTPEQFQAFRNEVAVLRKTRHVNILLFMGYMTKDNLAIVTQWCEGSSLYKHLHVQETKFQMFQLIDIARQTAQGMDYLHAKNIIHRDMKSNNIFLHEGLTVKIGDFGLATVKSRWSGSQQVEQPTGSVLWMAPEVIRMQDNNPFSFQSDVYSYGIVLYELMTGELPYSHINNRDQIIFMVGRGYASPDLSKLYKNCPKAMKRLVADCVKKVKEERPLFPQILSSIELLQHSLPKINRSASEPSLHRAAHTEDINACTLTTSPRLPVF
Procedure, shortened: as §1

[10] = molecular target: T10, 380 human recombinant protein kinases (Homo sapiens, UniProt Q00532); details: CDKL1(h), read-out: Inhibition rate
T10 construct: purchased Eurofins (Celle Lévescault)
T10 sequence (Q00532 whole entry): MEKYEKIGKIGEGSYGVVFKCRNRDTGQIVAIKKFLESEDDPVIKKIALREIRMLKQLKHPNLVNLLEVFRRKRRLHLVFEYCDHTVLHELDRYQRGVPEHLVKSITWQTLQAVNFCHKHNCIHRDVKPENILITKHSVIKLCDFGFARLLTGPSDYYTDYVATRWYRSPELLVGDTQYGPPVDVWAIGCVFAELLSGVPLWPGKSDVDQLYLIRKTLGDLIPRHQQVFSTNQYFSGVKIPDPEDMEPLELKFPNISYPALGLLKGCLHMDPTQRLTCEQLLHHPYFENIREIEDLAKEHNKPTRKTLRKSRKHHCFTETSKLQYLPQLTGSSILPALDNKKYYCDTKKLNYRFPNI
Procedure, shortened: as §1

[11] = molecular target: T11, 380 human recombinant protein kinases (Homo sapiens, UniProt P11362); details: FGFR1(h), read-out: Inhibition rate
T11 construct: purchased Eurofins (Celle Lévescault)
Procedure, shortened: as §1

Question: What does the source list for C=CC(=O)Nc1cc(-c2cc(-c3cc4c([nH]3)CCNC4=O)ccn2)ccc1OC(F)(F)F [compound 11]?
Answer: inhibition at 0.01 µM ([1]; 10 nM): -2%; inhibition at 0.1 µM ([1]; 100 nM): 8%; inhibition at 1 µM ([1]; 1000 nM): 43%; inhibition at 0.01 µM ([2]; 10 nM): -21%; inhibition at 0.1 µM ([2]; 100 nM): 4%; inhibition at 1 µM ([2]; 1000 nM): 28%; inhibition at 0.01 µM ([3]; 10 nM): -22%; inhibition at 0.1 µM ([3]; 100 nM): -12%; inhibition at 1 µM ([3]; 1000 nM): -2%; inhibition at 0.01 µM ([4]; 10 nM): -6%; inhibition at 0.1 µM ([4]; 100 nM): -8%; inhibition at 1 µM ([4]; 1000 nM): 1%; inhibition at 0.01 µM ([5]; 10 nM): -7%; inhibition at 0.1 µM ([5]; 100 nM): 29%; inhibition at 1 µM ([5]; 1000 nM): 74%; inhibition at 0.01 µM ([6]; 10 nM): 3%; inhibition at 0.1 µM ([6]; 100 nM): -1%; inhibition at 1 µM ([6]; 1000 nM): -1%; inhibition at 0.01 µM ([7]; 10 nM): -3%; inhibition at 0.1 µM ([7]; 100 nM): 0%; inhibition at 1 µM ([7]; 1000 nM): -6%; inhibition at 0.01 µM ([8]; 10 nM): 21%; inhibition at 0.1 µM ([8]; 100 nM): 77%; inhibition at 1 µM ([8]; 1000 nM): 97%; inhibition at 0.01 µM ([9]; 10 nM): -1%; inhibition at 0.1 µM ([9]; 100 nM): 2%; inhibition at 1 µM ([9]; 1000 nM): 1%; inhibition at 0.01 µM ([10]; 10 nM): 26%; inhibition at 0.1 µM ([10]; 100 nM): 47%; inhibition at 1 µM ([10]; 1000 nM): 49%; inhibition at 0.01 µM ([11]; 10 nM): -2%; inhibition at 0.1 µM ([11]; 100 nM): 6%; inhibition at 1 µM ([11]; 1000 nM): 7%
